Test results taken from publication PMC12649290 (Journal of Clinical Pharmacology, 2025).

Assays:
[1] = Population pharmacokinetic (popPK) model developed on OSIBOOST trial plasma concentrations (NONMEM); type: in vivo, human; details: for CL/F, Population Estimate (RSE%) / V/F, Population Estimate (RSE%): allometrically scaled on bodyweight of 70 kg; for CL/F, Population Estimate (RSE%): exponent 0.75; for V/F, Population Estimate (RSE%): exponent 1; for CL/F, Bootstrap Median / V/F, Bootstrap Median: non-parametric bootstrap n = 1000
Description: The data used in this study were obtained from the OSIBOOST clinical trial (NCT03858491).[15] The trial was approved by an independent medical ethics committee (METC19‐013) and was conducted in accordance with the 1964 Helsinki declaration (and its amendments). All patients provided written informed consent. Patients were included from one academic medical center and a specialized tertiary referral center in the Netherlands (the Maastricht University Medical Centre and the Antoni van Leeuwenhoek hospital). […] After 21 days of concomitant treatment with cobicistat (to reach steady state), PK samples (pre‐dose, 0.5‐1.5 h, 2.5‐3.5 h, 7‐8 h) of the concomitant therapy were collected.
PK data were analyzed with NONMEM version 7.4.4, Perl‐speaks‐NONMEM (PsN) version 5.4.0, R version 4.4.2, and Rstudio version 2024.09.0. The packages xpose, tidyvpc, mrgsolve, and ggplot2 in R were used for plotting and simulations.
A base popPK model was developed with the data from osimertinib monotherapy, using the first‐order conditional estimation method with interaction (FOCE‐I). […] Parameter changes were tested with stepwise inclusion and backward elimination. A decrease of more than −3.84 ΔOFV (P < .05) was considered a significant improvement when a single parameter was added to nested models. For backward elimination, a stricter criterion of 6.63 ΔOFV (P < .01) was used when removing a parameter from the popPK model.[25] One‐compartment and two‐compartment models were tested to best describe the data. Exponential between subject variability (BSV) on the popPK parameters was explored in a step‐wise approach. Residual error was tested as an additional, proportional, and a combined error model.
Developed popPK models were evaluated based on successful minimization, change in objective function value (ΔOFV), numerical diagnostics, standard goodness of fit (GOF) plots, and conditional weighted residuals (CWRES) plots. The performance of the developed popPK models was assessed with prediction‐corrected visual predictive check (pcVPC) and normalized prediction distribution error (NPDE) plots.[27] For the final popPK model, the median parameter estimate and 95% confidence interval (CI) were obtained non‐parametric bootstrap procedure (n = 1000) and can be considered as an internal validation.[28], [29] Relative standard errors (RSE%) of estimated parameters were acceptable when <30%.[30] A condition number was considered acceptable if […].[30] Both η‐shrinkage and ε‐shrinkage were considered appropriate if <30%.[31]

[2] = cited from earlier work
[3] = cited from earlier work; remark: listed apart in the source

| CL/F, Population Estimate (RSE%) [1] | V/F, Population Estimate (RSE%) [1] | CL/F, Bootstrap Median [1] [L/h] | V/F, Bootstrap Median [1] [L] | Coefficient of variation (CV%) of the BSV on CL/F ([1]; in vivo) [%] | SMILES | Increase of osimertinib exposure (mean AUC0‐24h) by cobicistat ([2]; 11 patients with Cmin,SS ≤ 195 µg/L, noncompartmental analysis) [%] | Adverse events of cobicistat boosted osimertinib ([2]; 11 patients with low osimertinib exposure) | Increase in osimertinib exposure when combined with itraconazole [3] [%] |
| --- | --- | --- | --- | --- | --- | --- | --- | --- |
| 47.3 (7.8%) L/h | 184 (48.5%) L | 46.3 | 181 | – | C=CC(=O)Nc1cc(Nc2nccc(-c3c[nH]c4ccccc34)n2)c(OC)cc1N(C)CCN(C)C [AZ5104] | – | – | – |
| – | – | – | – | – | CC(C)c1nc(CN(C)C(=O)N[C@@H](CCN2CCOCC2)C(=O)N[C@H](CC[C@H](Cc2ccccc2)NC(=O)OCc2cncs2)Cc2ccccc2)cs1 [cobicistat] | 50 | without any grade ≥3 adverse events (AEs) or new safety signals | – |
| – | – | – | – | – | CCC(C)n1ncn(-c2ccc(N3CCN(c4ccc(OCC5COC(Cn6cncn6)(c6ccc(Cl)cc6Cl)O5)cc4)CC3)cc2)c1=O (stereo not drawn) [itraconazole] | – | – | 24 |
| 19.0 (8.5%) L/h | 990 (29%) L | 19.0 | 966 | 21.5 | C=CC(=O)Nc1cc(Nc2nccc(-c3cn(C)c4ccccc34)n2)c(OC)cc1N(C)CCN(C)C [osimertinib] | – | – | – |
